# Results: PubChem BioAssay (NCI)
#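 How tested: cells in 96-well plates exposed to compound for 48 hours at five concentrations. TGI denotes the concentration required for complete inhibition of growth.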
# Columns and labels:
# Experiment in all cases: DTP human tumour cell line panel, 48 h
# SF-268 CNS = tested on: SF-268 CNS
# NCI-H226 lung = tested on: NCI-H226 lung
# HOP-92 NSCLC = tested on: HOP-92 NSCLC
# MCF7 breast = tested on: MCF7 breast
# 786-0 renal = tested on: 786-0 renal
# UACC-62 melanoma = tested on: UACC-62 melanoma
# BT-549 breast = tested on: BT-549 breast
# CAKI-1 renal = tested on: CAKI-1 renal
# LOX IMVI melanoma = tested on: LOX IMVI melanoma
# TK-10 renal = tested on: TK-10 renal
# SK-MEL-28 melanoma = tested on: SK-MEL-28 melanoma
# SR leukemia = tested on: SR leukemia
# RPMI-8226 leukemia = tested on: RPMI-8226 leukemia
# U251 CNS = tested on: U251 CNS
# T-47D breast = tested on: T-47D breast
# SW-620 colon = tested on: SW-620 colon
# OVCAR-4 ovarian = tested on: OVCAR-4 ovarian
# HT29 colon = tested on: HT29 colon
# A549 NSCLC = tested on: A549 NSCLC
# HCT-15 colon = tested on: HCT-15 colon
# SN12C renal = tested on: SN12C renal
# NCI-H23 lung = tested on: NCI-H23 lung
# HOP-62 NSCLC = tested on: HOP-62 NSCLC
# PC-3 prostate = tested on: PC-3 prostate
# M14 melanoma = tested on: M14 melanoma
# IGROV1 ovarian = tested on: IGROV1 ovarian
# DU-145 prostate = tested on: DU-145 prostate
# CCRF-CEM leukemia = tested on: CCRF-CEM leukemia
# MDA-MB-435 = tested on: MDA-MB-435
# RXF 393 renal = tested on: RXF 393 renal
# SK-OV-3 ovarian = tested on: SK-OV-3 ovarian
# OVCAR-5 ovarian = tested on: OVCAR-5 ovarian
# SNB-75 CNS = tested on: SNB-75 CNS
# NCI-H522 lung = tested on: NCI-H522 lung
# K-562 leukemia = tested on: K-562 leukemia
# NCI-H460 lung = tested on: NCI-H460 lung
# NCI/ADR-RES ovarian = tested on: NCI/ADR-RES ovarian
# UACC-257 melanoma = tested on: UACC-257 melanoma
# SF-539 CNS = tested on: SF-539 CNS
# OVCAR-8 ovarian = tested on: OVCAR-8 ovarian
# A498 renal = tested on: A498 renal
# EKVX NSCLC = tested on: EKVX NSCLC
# KM12 colon = tested on: KM12 colon
# MOLT-4 leukemia = tested on: MOLT-4 leukemia
# HS 578T breast = tested on: HS 578T breast
# MDA-MB-231 breast = tested on: MDA-MB-231 breast
# HCT-116 colon = tested on: HCT-116 colon
# MALME-3M melanoma = tested on: MALME-3M melanoma
# SF-295 CNS = tested on: SF-295 CNS
# SNB-19 CNS = tested on: SNB-19 CNS
# UO-31 renal = tested on: UO-31 renal
# ACHN renal = tested on: ACHN renal
# SK-MEL-2 melanoma = tested on: SK-MEL-2 melanoma
# COLO 205 colon = tested on: COLO 205 colon
# SK-MEL-5 melanoma = tested on: SK-MEL-5 melanoma
# OVCAR-3 ovarian = tested on: OVCAR-3 ovarian
# HCC-2998 colon = tested on: HCC-2998 colon
# HL-60(TB) leukemia = tested on: HL-60(TB) leukemia
structure (smiles),measurement,setting,value
CCOC(=O)/C=C\[C@H]1OC(C)(C)O[C@H]1[C@H](O)[C@H]1COC(C)(C)O1,TGI,SF-268 CNS,72.6 µM
same,TGI,NCI-H226 lung,> 100 µM
same,TGI,HOP-92 NSCLC,31.3 µM
same,TGI,MCF7 breast,40.7 µM
same,TGI,786-0 renal,39.2 µM
same,TGI,UACC-62 melanoma,60.7 µM
same,TGI,BT-549 breast,42.2 µM
same,TGI,CAKI-1 renal,7.88 µM
same,TGI,LOX IMVI melanoma,39.9 µM
same,TGI,TK-10 renal,30.8 µM
same,TGI,SK-MEL-28 melanoma,35.6 µM
same,TGI,SR leukemia,37.2 µM
same,TGI,RPMI-8226 leukemia,42.3 µM
same,TGI,U251 CNS,32.6 µM
same,TGI,T-47D breast,46.7 µM
same,TGI,SW-620 colon,36.8 µM
same,TGI,OVCAR-4 ovarian,46.5 µM
same,TGI,HT29 colon,46.1 µM
same,TGI,A549 NSCLC,> 100 µM
same,TGI,HCT-15 colon,33.1 µM
same,TGI,SN12C renal,33.5 µM
same,TGI,NCI-H23 lung,50.1 µM
same,TGI,HOP-62 NSCLC,> 100 µM
same,TGI,PC-3 prostate,37.6 µM
same,TGI,M14 melanoma,33 µM
same,TGI,IGROV1 ovarian,37.7 µM
same,TGI,DU-145 prostate,> 100 µM
same,TGI,CCRF-CEM leukemia,39 µM
same,TGI,MDA-MB-435,35 µM
same,TGI,RXF 393 renal,35 µM
same,TGI,SK-OV-3 ovarian,> 100 µM
same,TGI,OVCAR-5 ovarian,32.6 µM
same,TGI,SNB-75 CNS,13.3 µM
same,TGI,NCI-H522 lung,29.7 µM
same,TGI,K-562 leukemia,44.7 µM
same,TGI,NCI-H460 lung,> 100 µM
same,TGI,NCI/ADR-RES ovarian,> 100 µM
same,TGI,UACC-257 melanoma,55.5 µM
same,TGI,SF-539 CNS,32.1 µM
same,TGI,OVCAR-8 ovarian,> 100 µM
same,TGI,A498 renal,37.6 µM
same,TGI,EKVX NSCLC,50.1 µM
same,TGI,KM12 colon,> 100 µM
same,TGI,MOLT-4 leukemia,40.5 µM
same,TGI,HS 578T breast,93.2 µM
same,TGI,MDA-MB-231 breast,33.9 µM
same,TGI,HCT-116 colon,39 µM
same,TGI,MALME-3M melanoma,41.7 µM
same,TGI,SF-295 CNS,> 100 µM
same,TGI,SNB-19 CNS,> 100 µM
same,TGI,UO-31 renal,34.4 µM
same,TGI,ACHN renal,32.6 µM
same,TGI,SK-MEL-2 melanoma,52.4 µM
same,TGI,COLO 205 colon,32.3 µM
same,TGI,SK-MEL-5 melanoma,33.5 µM
same,TGI,OVCAR-3 ovarian,32.2 µM
same,TGI,HCC-2998 colon,28.6 µM
same,TGI,HL-60(TB) leukemia,62.4 µM
